Laboratory results reported in patent US6358885B1, “Substituted phenylheterocyclic herbicides” (Mississippi State University, priority 1992, dated 2002).

Experiments:
bedstraw = experiment: Test B preemergence/postemergence greenhouse plant response rating 0 to 10; assay type: in vivo, Galium aparine; conditions: for Plant response rating, Bedstraw: 0 to 10 scale
Summary of the method: (§1)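 Postemergence treatment of plants two to eighteen cm tall ran alongside preemergence treatment of planted seed, each using compound in a non-phytotoxic solvent.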

cheatgrass = experiment: as above; assay type: in vivo, Bromus secalinus; conditions: for Plant response rating, Cheatgrass: 0 to 10 scale
Summary of the method: as §1

cocklebur = experiment: as above; assay type: in vivo, Xanthium pensylvanicum; conditions: for Plant response rating, Cocklebur: 0 to 10 scale
Summary of the method: as §1

cotton [1] = experiment: as above; assay type: in vivo, Gossypium hirsutum; conditions: for Plant response rating, Cotton: 0 to 10 scale
Summary of the method: as §1

crabgrass = experiment: as above; assay type: in vivo, Digitaria spp.; conditions: for Plant response rating, Crabgrass: 0 to 10 scale
Summary of the method: as §1

giant foxtail [2] = experiment: as above; assay type: in vivo, Setaria faberii; conditions: 0 to 10 scale
Summary of the method: as §1

morningglory = experiment: as above; assay type: in vivo, Ipomoea hederacea; conditions: 0 to 10 scale
Summary of the method: as §1

rape = experiment: as above; assay type: in vivo, Brassica napus; conditions: 0 to 10 scale
Summary of the method: as §1

barley = experiment: Test C preemergence/postemergence greenhouse plant response rating 0 to 100; assay type: in vivo, Hordeum vulgare; conditions: POSTEMERGENCE; for Plant response rating Barley Igri: 0 to 100 scale
From the text: (§2) The compounds evaluated in this test were formulated in a non-phytoxic solvent and applied to the soil surface before plant seedlings emerged (preemergence application), to water that covered the soil surface (flood application), and to plants that were in the one-to-four leaf stage (postemergence application). A sandy loam soil was used for the preemergence and postemergence tests, while a silt loam soil was used in the flood test. Water depth was approximately 2.5 cm for the flood test and was maintained at this level for the duration of the test. Plant species in the preemergence and postemergence tests consisted of barley (Hordeum vulgare), bedstraw (Galium aparine), blackgrass (Alopecurus myosuroides), chickweed (Stellaria media), corn (Zea mays), cotton (Gossypium hirsutum), crabgrass (Digitaria sanguinalis), downy brome (Bromus tectorum), giant foxtail (Setaria faberii), lambsquarters (Chenopodium album), morningglory (Ipomoea hederacea), pigweed ([…]), rape (Brassica napus), ryegrass (Lolium multiflorum), sorghum (Sorghum bicolor), soybean (Glycine max), speedwell (Veronica persica), sugar beet (Beta vulgaris), velvetleaf (Abutilon theophrasti), wheat (Triticum aestivum), wild buckwheat (Polygonum convolvulus), and wild oat (Avena fatua). All plant species were planted one day before application of the compound for the preemergence portion-of this test. Plantings of these species were adjusted to produce plants of appropriate size for the post-emergence portion of the test. […] All plant species were grown using normal greenhouse practices. Visual evaluations of injury expressed on treated plants, when compared to untreated controls, were recorded approximately fourteen to twenty one days after application of the test compound. […] A dash (-) response means no test result.

chickweed = experiment: as above; assay type: in vivo, Stellaria media; conditions: POSTEMERGENCE; for Plant response rating, Chickweed: 0 to 100 scale
From the text: as §2

cotton [3] = experiment: as above; assay type: in vivo, Gossypium hirsutum; conditions: POSTEMERGENCE; for Plant response rating, Cotton: 0 to 100 scale
From the text: as §2

giant foxtail [4] = experiment: as above; assay type: in vivo, Setaria faberii; conditions: POSTEMERGENCE; for Plant response rating, Giant foxtail: 0 to 100 scale
From the text: as §2

lambsquarters = experiment: as above; assay type: in vivo, Chenopodium album; conditions: POSTEMERGENCE; for Plant response rating Lambsquarters: 0 to 100 scale
From the text: as §2

pigweed = experiment: as above; assay type: in vivo, Amaranthusretroflexus; conditions: POSTEMERGENCE; for Plant response rating Pigweed: 0 to 100 scale
From the text: as §2

soybean = experiment: as above; assay type: in vivo, Glycine max; conditions: POSTEMERGENCE; for Plant response rating, Soybean: 0 to 100 scale
From the text: as §2

velvetleaf = experiment: as above; assay type: in vivo, Abutilon theophrasti; conditions: POSTEMERGENCE; for Plant response rating, Velvetleaf: 0 to 100 scale
From the text: as §2

umbrella sedge = experiment: Test C flood test plant response rating 0 to 100; assay type: in vivo, Cyperus difformis; conditions: for Plant response rating Umbrella sedge: flood test species listed under POSTEMERGENCE, 0 to 100 scale
From the text: as §2

duck salad = experiment: Test C flood test plant response rating 0 to 100; assay type: in vivo, Heteranthera limosa; conditions: for Plant response rating Duck salad: flood test species listed under POSTEMERGENCE, 0 to 100 scale
From the text: as §2

[5] = POSTEMERGENCE section, flood test, Rate 4 g/ha
[6] = Rate 16 g/ha, under POSTEMERGENCE head (flood test species)

CC(C)COc1cc(-c2nn3c(c2Cl)CCCC3)c(F)cc1Cl [Compound 30]
5: Plant response rating, Giant foxtail (giant foxtail [2]; Rate 200 g/ha, POSTEMERGENCE) | Plant response rating, Morningglory (morningglory; Rate 200 g/ha, PREEMERGENCE) | Plant response rating, Rape (rape; POSTEMERGENCE, Rate 50 g/ha)
3: Plant response rating (0 to 10 scale), Crabgrass (crabgrass; POSTEMERGENCE, Rate 50 g/ha) | Plant response rating, Rape (rape; Rate 200 g/ha, PREEMERGENCE)
0: Plant response rating, Bedstraw (bedstraw; PREEMERGENCE, Rate 50 g/ha) | Plant response rating, Cheatgrass (cheatgrass; PREEMERGENCE, Rate 50 g/ha) | Plant response rating, Cocklebur (cocklebur; PREEMERGENCE, Rate 50 g/ha) | Plant response rating, Rape (rape; PREEMERGENCE, Rate 50 g/ha) | Plant response rating (0 to 100), Giant foxtail (giant foxtail [4]; Rate 4 g/ha) | Plant response rating (0 to 100), Soybean (soybean; Rate 4 g/ha) | Plant response rating (0 to 100), Velvetleaf (velvetleaf; Rate 4 g/ha) | Plant response rating (0 to 100), Duck salad (duck salad; [5])
30: Plant response rating (0 to 100), Barley Igri (barley; Rate 4 g/ha) | Plant response rating (0 to 100), Barley Igri (barley; Rate 16 g/ha) | Plant response rating Umbrella sedge (umbrella sedge; 62 g/ha) | Plant response rating (0 to 100), Duck salad (duck salad; [6])
9: Plant response rating, Bedstraw (bedstraw; Rate 200 g/ha, PREEMERGENCE) | Plant response rating, Crabgrass (crabgrass; Rate 200 g/ha, PREEMERGENCE) | Plant response rating, Morningglory (morningglory; Rate 200 g/ha, POSTEMERGENCE) | Plant response rating, Rape (rape; Rate 200 g/ha, POSTEMERGENCE)
40: Plant response rating Duck salad (duck salad; 62 g/ha)
100: Plant response rating, Cotton (cotton [3]; 62 g/ha) | Plant response rating, Cotton (cotton [3]; 250 g/ha) | Plant response rating (0 to 100), Cotton (cotton [3]; Rate 4 g/ha) | Plant response rating (0 to 100), Cotton (cotton [3]; Rate 16 g/ha) | Plant response rating Lambsquarters (lambsquarters; 250 g/ha) | Plant response rating Pigweed (pigweed; 62 g/ha) | Plant response rating Pigweed (pigweed; 250 g/ha) | Plant response rating (0 to 100), Pigweed (pigweed; Rate 4 g/ha) | Plant response rating (0 to 100), Pigweed (pigweed; Rate 16 g/ha) | Plant response rating, Velvetleaf (velvetleaf; 62 g/ha) | Plant response rating, Velvetleaf (velvetleaf; 250 g/ha)
10: Plant response rating, Bedstraw (bedstraw; POSTEMERGENCE, Rate 200 g/ha) | Plant response rating, Cocklebur (cocklebur; POSTEMERGENCE, Rate 200 g/ha) | Plant response rating (0 to 10 scale), Cotton (cotton [1]; POSTEMERGENCE, Rate 50 g/ha) | Plant response rating, Cotton (cotton [1]; POSTEMERGENCE, Rate 200 g/ha) | Plant response rating (0 to 100), Chickweed (chickweed; Rate 4 g/ha) | Plant response rating (0 to 100), Umbrella sedge (umbrella sedge; [5])
6: Plant response rating (0 to 10 scale), Cheatgrass (cheatgrass; POSTEMERGENCE, Rate 50 g/ha) | Plant response rating, Cotton (cotton [1]; Rate 200 g/ha, PREEMERGENCE) | Plant response rating, Crabgrass (crabgrass; PREEMERGENCE, Rate 50 g/ha)
80: Plant response rating, Giant foxtail (giant foxtail [4]; 250 g/ha) | Plant response rating Umbrella sedge (umbrella sedge; 250 g/ha)
90: Plant response rating Lambsquarters (lambsquarters; 62 g/ha)
2: Plant response rating, Cotton (cotton [1]; PREEMERGENCE, Rate 50 g/ha) | Plant response rating, Crabgrass (crabgrass; POSTEMERGENCE, Rate 200 g/ha) | Plant response rating, Morningglory (morningglory; PREEMERGENCE, Rate 50 g/ha)
50: Plant response rating Barley Igri (barley; 62 g/ha) | Plant response rating, Chickweed (chickweed; 62 g/ha) | Plant response rating, Giant foxtail (giant foxtail [4]; 62 g/ha) | Plant response rating (0 to 100), Lambsquarters (lambsquarters; Rate 4 g/ha) | Plant response rating, Soybean (soybean; 62 g/ha) | Plant response rating, Soybean (soybean; 250 g/ha)
20: Plant response rating (0 to 100), Chickweed (chickweed; Rate 16 g/ha) | Plant response rating (0 to 100), Giant foxtail (giant foxtail [4]; Rate 16 g/ha) | Plant response rating (0 to 100), Soybean (soybean; Rate 16 g/ha)
8: Plant response rating (0 to 10 scale), Bedstraw (bedstraw; POSTEMERGENCE, Rate 50 g/ha) | Plant response rating, Giant foxtail (giant foxtail [2]; Rate 200 g/ha, PREEMERGENCE) | Plant response rating, Morningglory (morningglory; POSTEMERGENCE, Rate 50 g/ha)
60: Plant response rating (0 to 100), Velvetleaf (velvetleaf; Rate 16 g/ha) | Plant response rating Duck salad (duck salad; 250 g/ha)
70: Plant response rating Barley Igri (barley; 250 g/ha) | Plant response rating, Chickweed (chickweed; 250 g/ha) | Plant response rating (0 to 100), Lambsquarters (lambsquarters; Rate 16 g/ha)
4: Plant response rating, Cheatgrass (cheatgrass; Rate 200 g/ha, PREEMERGENCE) | Plant response rating, Cocklebur (cocklebur; Rate 200 g/ha, PREEMERGENCE) | Plant response rating, Giant foxtail (giant foxtail [2]; POSTEMERGENCE, Rate 50 g/ha)
7: Plant response rating, Cheatgrass (cheatgrass; POSTEMERGENCE, Rate 200 g/ha) | Plant response rating (0 to 10 scale), Cocklebur (cocklebur; POSTEMERGENCE, Rate 50 g/ha) | Plant response rating, Giant foxtail (giant foxtail [2]; PREEMERGENCE, Rate 50 g/ha)
25: Plant response rating (0 to 100), Umbrella sedge (umbrella sedge; [6])
